Source: US10602743B2, “Method of inducing drought/salt tolerance using Bacillus megaterium” (Marrone Bio Innovations, Inc., priority 2012, dated 2020)
Structures can show the parent of a compound that is named as a salt.

Tested on: Bacillus megaterium strain H491
Assay: Chemical sensitivity, Biolog Phenotypic Microarray
Assay type: cell-based
Details: not given

| Compound | H491 susceptible to compound |
| --- | --- |
| O=C([O-])c1ccccc1O.[Na+] [Salicylate, sodium] | susceptible |
| O=NO [Sodium Nitrite] | susceptible |

Same assay, conditions: Biolog Phenotypic Microarray, 25° C.

| Compound | H491 susceptible to compound |
| --- | --- |
| CCCCCCCC[N+](C)(CCCCCCCC)CCCCCCCC.[Cl-] [Methyltrioctylammonium chloride] | susceptible |
| CCOc1ccc2ccccc2c1C(=O)N[C@@H]1C(=O)N2[C@@H]1SC(C)(C)[C@@H]2C(=O)O [Nafcillin] | susceptible |
| CCn1cc(C(=O)O)c(=O)c2ccc(C)nc21 [Nalidixic acid] | susceptible |
| CO[C@@H]1[C@@H](OC(N)=O)[C@@H](O)[C@H](Oc2ccc3c(O)c(NC(=O)c4ccc(O)c(CC=C(C)C)c4)c(=O)oc3c2C)OC1(C)C [Novobiocin] | susceptible |
| CO[C@H]1C[C@H](O[C@H]2[C@H](C)[C@@H](O[C@@H]3O[C@H](C)C[C@H](N(C)C)[C@H]3O)[C@@H](C)C[C@@]3(CO3)C(=O)[C@H](C)[C@@H](O)[C@@H](C)[C@@H](C)OC(=O)[C@@H]2C)O[C@@H](C)[C@@H]1O [Oleandomycin, phosphate salt] | susceptible |
| Cc1ncc([N+](=O)[O-])n1CC(O)CCl (stereo not shown) [Ornidazole] | susceptible |
| Cc1ccccc1C(OCCN(C)C)c1ccccc1 (stereo not shown) [Orphenadrine] | susceptible |
| Cc1onc(-c2ccccc2)c1C(=O)N[C@@H]1C(=O)N2[C@@H]1SC(C)(C)[C@@H]2C(=O)O [Oxacillin] | susceptible |
| CC1=C(C(=O)Nc2ccccc2)S(=O)(=O)CCO1 [Oxycarboxin] | susceptible |
| NC[C@@H]1O[C@H](O[C@H]2[C@@H](O)[C@H](O[C@@H]3[C@@H](O)[C@H](N)C[C@H](N)[C@H]3O[C@H]3O[C@H](CO)[C@@H](O)[C@H](O)[C@H]3N)O[C@@H]2CO)[C@H](N)[C@@H](O)[C@@H]1O [Paromomycin] | susceptible |
| O=C1C=C2C(=CCOC2O)O1 (stereo not shown) [Patulin] | susceptible |
| CC1(C)S[C@@H]2[C@H](NC(=O)Cc3ccccc3)C(=O)N2[C@H]1C(=O)O [Penicillin G] | susceptible |
| Oc1c(Cl)c(Cl)c(Cl)c(Cl)c1Cl [Pentachlorophenol] | susceptible |
| CC(Oc1ccccc1)C(=O)N[C@@H]1C(=O)N2[C@@H]1SC(C)(C)[C@@H]2C(=O)O (stereo partly shown) [Phenethicilllin] | susceptible |
| CC1=CC(=O)c2c(O)cccc2C1=O [Plumbagin] | susceptible |
| O=[Te]([O-])[O-].[K+].[K+] [Potassium tellurite] | susceptible |
| OC(CCN1CCCCC1)(c1ccccc1)c1ccccc1 [Pridinol] | susceptible |
| Nc1ccc2cc3ccc(N)cc3nc2c1 [Proflavine] | susceptible |
| CC(CN1c2ccccc2Sc2ccccc21)N(C)C (stereo not shown) [Promethazine] | susceptible |
| COc1ccc(C[C@H](N)C(=O)N[C@H]2[C@@H](O)[C@H](n3cnc4c(N(C)C)ncnc43)O[C@@H]2CO)cc1 [Puromycin] | susceptible |
| CO[C@H]1/C=C/O[C@@]2(C)Oc3c(C)c([O-])c4c(O)c(cc(O)c4c3C2=O)NC(=O)/C(C)=C\C=C\[C@H](C)[C@H](O)[C@@H](C)[C@@H](O)[C@@H](C)[C@H](OC(C)=O)[C@@H]1C.[Na+] [Rifamycin SV] | susceptible |

| Compound | H491 susceptible to compound |
| --- | --- |
| C[n+]1cc2c3c(ccc2c2ccc4cc5c(cc4c21)OCO5)OCO3 [Sanguinarine chloride] | susceptible |
| NNC(N)=O [Semicarbazide hydrochloride] | susceptible |
| CN[C@@H]1[C@@H](O)[C@@H](O[C@@H]2[C@@H](O)[C@H](O[C@H]3OC(CN)=CC[C@H]3N)[C@@H](N)C[C@H]2N)OC[C@]1(C)O [Sisomicin] | susceptible |
| O=[As]O [Sodium Arsenite] | susceptible |
| CCCCCCCC(=O)[O-].[Na+] [Sodium Caprylate] | susceptible |
| N#CO [Sodium Cyanate] | susceptible |
| [Na+].[Na+].[O]=[Cr](=[O])([O-])[O][Cr](=[O])(=[O])[O-] [Sodium Dichromate] | susceptible |
| [Na+].[Na+].[O]=[W](=[O])([O-])[O-] [Sodium Tungstate] | susceptible |
| O=B[O-].[Na+] [Sodium metaborate] | susceptible |
| [Na+].[Na+].[Na+].[O]=[V]([O-])([O-])[O-] [Sodium orthovanadate] | susceptible |
| [Na+].[O-][I+3]([O-])([O-])[O-] [Sodium periodate] | susceptible |
| Nc1ccc(S(=O)(=O)Nc2ccc(Cl)nn2)cc1 [Sulfachloropyridazine] | susceptible |
| Nc1ccc(S(=O)(=O)Nc2ncccn2)cc1 [Sulfadiazine] | susceptible |
| Cc1cc(NS(=O)(=O)c2ccc(N)cc2)no1 [Sulfamethoxazole] | susceptible |
| Nc1ccc(S(N)(=O)=O)cc1 [Sulfanilamide] | susceptible |
| Nc1ccc(S(=O)(=O)Nc2nccs2)cc1 [Sulfathiazole] | susceptible |
| CCN(CC)C(=S)SSC(=S)N(CC)CC [Tetraethylthiuram disulfide] | susceptible |
| c1ccc(-c2nn(-c3ccccc3)[n+](-c3cccc4ccccc34)n2)cc1 [Tetrazolium violet] | susceptible |
| CC(=O)[O-].[Tl+] [Thallium (I) acetate] | susceptible |
| CS(=O)(=O)c1ccc([C@@H](O)[C@@H](CO)NC(=O)C(Cl)Cl)cc1 [Thiamphenicol] | susceptible |
| CSc1ccc2c(c1)N(CCC1CCCCN1C)c1ccccc1S2 (stereo not shown) [Thioridazine] | susceptible |

| Compound | H491 susceptible to compound |
| --- | --- |
| O=C(O)c1ccccc1S [Thiosalicylate] | susceptible |
| CCS(=O)(=O)CCn1c([N+](=O)[O-])cnc1C [Tinidazole] | susceptible |
| NC[C@H]1O[C@H](O[C@H]2[C@H](O)[C@@H](O[C@H]3O[C@H](CO)[C@@H](O)[C@H](N)[C@H]3O)[C@H](N)C[C@@H]2N)[C@H](N)C[C@@H]1O [Tobramycin] | susceptible |
| Cc1ccc(N(SC(F)(Cl)Cl)S(=O)(=O)N(C)C)cc1 [Tolylfluanid] | susceptible |
| CN1CCN(CCCN2c3ccccc3Sc3ccc(C(F)(F)F)cc32)CC1 [Trifluoperazine] | susceptible |
| O=c1[nH]c(=O)n([C@H]2C[C@H](O)[C@@H](CO)O2)cc1C(F)(F)F [Trifluorothymidine] | susceptible |
| CO[C@H]1C[C@H](O[C@H]2[C@H](C)[C@@H](O[C@@H]3O[C@H](C)C[C@H](N(C)C)[C@H]3OC(C)=O)[C@@H](C)C[C@@]3(CO3)C(=O)[C@H](C)[C@@H](OC(C)=O)[C@@H](C)[C@@H](C)OC(=O)[C@@H]2C)O[C@@H](C)[C@@H]1OC(C)=O [Troleandomycin] | susceptible |
| CC[C@H]1OC(=O)C[C@@H](O)[C@H](C)[C@@H](O[C@@H]2O[C@H](C)[C@@H](O[C@H]3C[C@@](C)(O)[C@@H](O)[C@H](C)O3)[C@H](N(C)C)[C@H]2O)[C@@H](CC=O)C[C@@H](C)C(=O)/C=C/C(C)=C/[C@@H]1CO[C@@H]1O[C@H](C)[C@@H](O)[C@@H](OC)[C@H]1OC [Tylosin] | susceptible |
| CN[C@H](CC(C)C)C(=O)N[C@H]1C(=O)N[C@@H](CC(N)=O)C(=O)N[C@H]2C(=O)N[C@H]3C(=O)N[C@H](C(=O)N[C@H](C(=O)O)c4cc(O)cc(O)c4-c4cc3ccc4O)[C@H](O)c3ccc(c(Cl)c3)Oc3cc2cc(c3O[C@@H]2O[C@H](CO)[C@@H](O)[C@H](O)[C@H]2O[C@H]2C[C@](C)(N)[C@H](O)[C@H](C)O2)Oc2ccc(cc2Cl)[C@H]1O [Vancomycin] | susceptible |
| O=C(O)/C=C/c1ccccc1 [trans-Cinnamic acid] | susceptible |
| Acriflavine | susceptible |
| Capreomycin | susceptible |
| Neomycin | susceptible |
| Niaproof | susceptible |
| Penimepicycline | susceptible |
| Phleomycin | susceptible |
| Poly-L-lysine | susceptible |
| Polymyxin B | susceptible |
| Protamine sulfate | susceptible |
| Sodium metavanadate | susceptible |
| Spiramycin | susceptible |

Same assay, conditions: Biolog Phenotypic Microarray; at a maximum concentration of 4 ug

| Compound | Resistance of H491 observed in wells containing compound |
| --- | --- |
| NCC[C@H](O)C(=O)N[C@@H]1C[C@H](N)[C@@H](O[C@H]2O[C@H](CN)[C@@H](O)[C@H](O)[C@H]2O)[C@H](O)[C@H]1O[C@H]1O[C@H](CO)[C@@H](O)[C@H](N)[C@H]1O [amikacin] | Resistance |
| CCn1cc(C(=O)O)c(=O)c2cc(F)c(N3CCNC(C)C3)c(F)c21 (stereo not shown) [lomefloxacin] | Resistance |
| CCn1cc(C(=O)O)c(=O)c2cc3c(cc21)OCO3 [oxolinic acid] | Resistance |
| CN[C@@H]1[C@H](O)[C@H](NC)[C@H]2O[C@@]3(O)C(=O)C[C@@H](C)O[C@H]3O[C@@H]2[C@H]1O [spectinomycin] | Resistance |
| Cc1cc(C)nc(NS(=O)(=O)c2ccc(N)cc2)n1 [sulfamethazine] | Resistance |
| Polymyxin B | Resistance |
| bleomycin | Resistance |
| colistin | Resistance |
